# Experimental data taken from patent US8048869B2, “Pharmaceutical composition for use in hormone replacement therapy” (Pantarhei Bioscience B.V., priority 2001, dated 2011).
# Key:
# [1] = tested on: OVX-rats; assay: Indentation test of distal femur (bone biomechanical strength), OVX rat; assay type: in vivo; details: 4 weeks; for Energy / Maximum load / Stiffness / Ultimate strength: po, distal femur
# Procedure: The ovariectomized aged rat was used as a model for the human disease osteoporosis. This is an established animal model, recommended by the United States Food and Drug Administration (FDA), to evaluate and assess potential agents for osteoporosis prevention and therapy. The anti-resorptive efficacy of estetrol (E4) was tested by ex vivo measuring total and trabecular bone mineral density and bone strength after 4 weeks of treatment at necropsy. 17α-ethinyl-estradiol (EE) and vehicle (1% ethanol/arachidis oil) served as controls in this bioassay.
# Three months old female Sprague-Dawley rats were either sham-operated (Sham) or ovariectomized (OVX) one day prior to commencement of the dosing study. Animals were anesthetized using a ketamine/xylazine anesthetic mixture and underwent a bilateral ovariectomy or were sham-treated. A section of hair on the dorsal surface was shaved and an incision made overlying the lumbar region of the spine. The skin was separated from the underlying fascia so that a second incision could be made through the abdominal musculature approximately caudal to the kidneys. The ovaries were then exteriorized and removed and the musculature was closed with a single suture. The skin incision was closed using surgical staples.
# Ten animals per treatment group were orally dosed once per day for four consecutive weeks. The dosing commenced 1 day after surgical removal of the ovaries and was administered by oral gavage using a syringe and stainless steel gavage needle at doses of 0.1 mg/kg /day EE, or either 2.5, 0.5 or 0.1 mg/kg/day E4. Vehicle control was daily administered to one group of OVX-animals and sham-operated rats. After treatment, anesthetized rats were subjected to cardiac puncture and asphyxiated by CO2 inhalation. Tibiae and femura were removed, cleaned of soft-tissue and fixed and stored in 70% ethanol/saline at 4° C. (tibia) or saline at 4° C. (femura) until fuirther analysis.
# Ex vivo evaluation of bone biomechanical strength was performed with an indentation test at the distal femura. Prior to mechanical testing femura were rinsed in cold saline and carefully cleaned of any remaining adherent soft tissue. A 3-mm segment of the distal femoral metaphysis was cut directly proximal to the femoral condyle with a low-speed diamond saw under constant saline irrigation. The load was applied with a cylindrical indenter (with a flat testing face of 1.6 mm diameter) to the center of marrow cavity on the distal face of the segment. The indenter was allowed to penetrate the cavity at a constant displacement of 6 mm/min to a depth of 2 mm before load reversal.
# The maximum load, stiffness and energy absorbed were determined from load displacement curves. Ultimate strength was calculated by dividing the maximum load by the indenter area. Furthermore, mean ultimate strength values are depicted in FIG. 2. […] Reductions in maximum load, stiffness, energy and ultimate strength were −68%, −68%, −27% and −68%, respectively, clearly accompanying the bone mineral density loss in estrogen deficient rats.
# [2] = tested on: OVX-rats; assay: Endometrial proliferation after 4-week oral treatment (uterine weight, Ki67); assay type: in vivo, rat; details: 0.5 to […], 4 weeks (FIG. 5)
# Source text: Endometrial proliferation was chosen as another relevant tissue-specific endpoint to determine the hormonal potency of estetrol after chronic (4-week), oral treatment in ovariectomized rats. An established 4-week animal model, also recommended for evaluation of agents for osteoporosis prevention and therapy, was used. […] 17α-ethinyl-estradiol (EE) and vehicle (1% ethanol/arachidis oil) served as additional controls in this bioassay.
# Three months old female Sprague-Dawley rats were either sham-operated (Sham) or ovariectomized (OVX) one day prior to commencement of the dosing study as described in Example 2. Ten animals per treatment group were orally dosed once per day for four consecutive weeks. The dosing commenced 1 day after surgical removal of the ovaries and was administered by oral gavage using a syringe and stainless steel gavage needle at doses of 0.1 mg/kg /day EE, or either 2.5 or 0.5 mg/kg/day E4. Vehicle control was daily administered to one group of OVX-animals and sham-operated rats. After treatment, anesthetized rats were subjected to cardiac puncture and asphyxiated by CO2 inhalation. The uterine horns were isolated and weighed and then fixed in 4% formaldehyde at 4° C. […] Proliferative indices were determined by scoring positively labeled cells on Ki67 immunostained sections. Typically, for each datapoint 1000 luminal epithelial cells were evaluated.
# [3] = biological target: T1, human ERα (Homo sapiens, UniProt P03372); assay: Competitive steroid binding assay, ERα; details: from Ki values for human ERα and ERβ
# T1 sequence (P03372 1-595): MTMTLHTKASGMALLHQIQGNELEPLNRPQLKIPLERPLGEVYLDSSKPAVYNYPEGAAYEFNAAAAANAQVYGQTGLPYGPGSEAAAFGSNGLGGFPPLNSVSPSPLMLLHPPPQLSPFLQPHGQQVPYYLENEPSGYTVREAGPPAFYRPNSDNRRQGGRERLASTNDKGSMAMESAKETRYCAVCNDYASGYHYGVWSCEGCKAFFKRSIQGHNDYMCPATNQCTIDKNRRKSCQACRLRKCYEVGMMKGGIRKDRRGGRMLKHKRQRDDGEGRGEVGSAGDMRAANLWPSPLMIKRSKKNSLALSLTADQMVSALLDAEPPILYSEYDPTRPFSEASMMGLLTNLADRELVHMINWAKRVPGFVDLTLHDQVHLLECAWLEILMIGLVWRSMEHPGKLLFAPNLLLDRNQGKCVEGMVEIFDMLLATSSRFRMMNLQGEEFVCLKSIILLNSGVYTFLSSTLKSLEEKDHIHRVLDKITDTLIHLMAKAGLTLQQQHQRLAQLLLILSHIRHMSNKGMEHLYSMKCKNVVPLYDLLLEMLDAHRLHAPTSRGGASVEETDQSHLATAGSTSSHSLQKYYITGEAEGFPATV
# [4] = tested on: nonpregnant ewes; details: intravenously administered; cited from earlier work
# [5] = tested on: human breast cancer cells (MCF-7); details: cited from earlier work
# [6] = tritium labeled, intravenously, two adult women; cited from earlier work
smiles,measurement,setting,value
"C[C@]12CC[C@@H]3c4ccc(O)cc4CC[C@H]3[C@@H]1[C@@H](O)[C@@H](O)[C@@H]2O [E4, 1,3,5 (10)-estratrien-3,15α,16α,17β-tetrol]","effect on declines in maximum load, stiffness, energy and ultimate strength","[1]; oral treatment, dose-dependent","prevented the declines in maximum load, stiffness, energy and ultimate strength"
same,Energy,[1]; 0.1 mg/kg/day,0.09 mJ
same,Maximum load,[1]; 0.1 mg/kg/day,1.50 N
same,Stiffness,[1]; 0.1 mg/kg/day,28.00 N/mm
same,Ultimate strength,[1]; 0.1 mg/kg/day,0.80 N/mm2
same,Energy,[1]; 0.5 mg/kg/day,0.31 mJ
same,Maximum load,[1]; 0.5 mg/kg/day,7.25 N
same,Stiffness,[1]; 0.5 mg/kg/day,132.57 N/mm
same,Ultimate strength,[1]; 0.5 mg/kg/day,3.85 N/mm2
same,"percentage of Ki67-positive luminal epithelial cells, dose trend",[2],declined with increasing doses
same,Relative ERα/ERβ preference,[3],400%
same,potency in uterine vasodilation relative to estriol and 17β-estradiol,[4],15 to 30 times less potent
same,"agonistic potency in in vitro cell proliferation, relative to 17β-estradiol",[5],2%
same,excretion and metabolism,[6],rapidly and completely excreted in urine as the glucosiduronate
